Experimental data from patent publication US10227334B2, “Estrogen receptor modulators and uses thereof” (Genentech, Inc., priority 2013, dated 2019).

What was measured:
MCF-7 cells = test: Breast cancer cell viability assay (MCF7, CellTiter-Glo); details: for IC50: read-out: MCF7 Viability Assay: IC50, 5 days' compound exposure; for MCF7 Viability Assay: % Viability relative to Fulvestrant: 5 days' compound exposure
ER-α = ER-α (Homo sapiens (Human), UniProt P03372); test: Breast cancer cell ER-α In-Cell Western assay (SP1); type: cell-based; details: MCF7 cells, 4 hours post compound addition
Description: MCF7 cells were trypsinized and washed twice in Phenol Red Free RPMI containing 5% Charcoal Dextran Stripped serum with 20 mM HEPES and NEAA, then adjusted to a concentration of 200,000 cells per mL with the same medium. Next, 16 μL of the cell suspension (3200 cells) was added to each well of a poly-D-lysine coated 384 well plate, and the cells were incubated at 37° C. over 4 days to allow the cells to adhere and grow. […] At 4 hours post compound addition, the cells were fixed by adding 16 μL of 30% formalin to the 32 μL of cells and compound (10% formalin final concentration) for 20 minutes. Cells were then washed twice with PBS Tween 0.1% and then permeabilized in PBS 0.1% Triton (50 μl/well) for additional 15 minutes. The PBS 0.1% triton was decanted, and the cells were washed: LI-COR blocking buffer (50 μL/well) was added, the plate was spun at 3000 rpm, and then the blocking buffer was decanted. Additional LI-COR blocking buffer (50 μL/well) was added, and the cells were incubated overnight at 4° C. The blocking buffer was decanted, and the cells were incubated overnight at 4° C. with SP1 (Thermo Scientific) anti-ER rabbit monoclonal antibody diluted 1:1000 in LI-COR blocking buffer/0.1% Tween-20. Wells which were treated with blocking buffer with Tween but no antibody were used as a background control. Wells were washed twice with PBS Tween 0.1% to remove free SP1 antibodies, and the cells were incubated at room temp for 60-90 minutes in LI-COR goat anti-rabbit IRDye™ 800CW (1:1000) and DRAQ5 DNA dye (1:10000 of 5 mM stock solution) diluted in LI-COR blocking buffer containing 0.1% Tween-20 and 0.01% SDS. Cells were then washed with 0.1% Tween-20/PBS three times. Plates were scanned on a LI-COR Odyssey infrared imaging system. Integrated intensities in the 800 nm channel and 700 nm channel were measured to determine levels of ER-α and DNA respectively. Percent ER levels were determined as follows: (Integrated intensity 800 nm sample/integrated intensity 700 nm sample)/(Integrated intensity 800 nm untreated cells/integrated intensity 700 nm untreated cells)×100=% ER-α levels.

[1] = tested on: tamoxifen resistant MCF-7 tumors; test: Breast cancer model: xenograft assay (MCF-7 derivative, tamoxifen resistant); type: in vivo; details: female nu/nu mice
Description: Female nu/nu mice (with supplemental 17-β Estradiol pellets; 0.72 mg; 60 day slow release) bearing MCF-7 tumors (mean tumor volume 200 mm^3) were treated with Tamoxifen (citrate) by oral gavage. Tumor volume (length×width^2/2) and body weight were monitored twice weekly. Following a significant anti-tumor response in which tumor volume remained static, evident tumor growth was first observed at approximately 100 days of treatment. At 120 days of treatment, tamoxifen dose was increased. Rapidly growing tumors were deemed tamoxifen resistant and selected for in vivo passage into new host animals. Tumor Fragments (˜100 mm^3/animal) from the tamoxifen resistant tumors were subcutaneously implanted into the right flank of female nu/nu mice (with 17-β Estradiol pellets (0.72 mg; 60 day slow release)). Passaged tumors were maintained under constant Tamoxifen selection, and Tumor volume (length×width^2/2) was monitored weekly. When tumor volume reached ˜150-250 mm^3, animals were randomized into treatment groups (mean tumor volume 200 mm^3) and tamoxifen treatment was terminated (except for a tamoxifen control arm). Animals were treated with Vehicle or Compound daily for 4 weeks. Tumor volume and body weight were monitored twice weekly for the duration of the study. At the conclusion of the treatment period; plasma and tumor samples were taken for pharmacokinetic and pharmacodynamic analyses, respectively.

Chain of ER-α (P03372 whole entry): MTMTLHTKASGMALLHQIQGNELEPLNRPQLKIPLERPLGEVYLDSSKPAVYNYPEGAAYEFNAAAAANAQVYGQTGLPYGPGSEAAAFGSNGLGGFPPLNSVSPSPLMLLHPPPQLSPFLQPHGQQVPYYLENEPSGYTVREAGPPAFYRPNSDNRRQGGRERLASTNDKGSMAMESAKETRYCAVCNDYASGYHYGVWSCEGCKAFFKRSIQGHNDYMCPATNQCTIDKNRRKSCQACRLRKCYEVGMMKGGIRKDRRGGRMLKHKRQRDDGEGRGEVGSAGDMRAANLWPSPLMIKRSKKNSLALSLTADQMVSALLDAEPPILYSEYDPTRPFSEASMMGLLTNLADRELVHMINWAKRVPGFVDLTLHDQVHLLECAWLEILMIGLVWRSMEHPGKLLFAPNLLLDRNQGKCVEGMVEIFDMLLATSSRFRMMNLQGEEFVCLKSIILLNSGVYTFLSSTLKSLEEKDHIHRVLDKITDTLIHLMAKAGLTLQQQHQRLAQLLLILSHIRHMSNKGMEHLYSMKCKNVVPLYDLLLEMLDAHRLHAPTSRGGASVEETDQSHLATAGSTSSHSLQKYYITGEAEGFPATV

Row | IC50 (MCF-7 cells) [nM] | ER-α In-Cell Western Assay (SP1): % ER-α remaining relative to Fulvestrant (ER-α) [%] | SMILES | MCF7 Viability Assay: % Viability relative to Fulvestrant (MCF-7 cells) [%] | IC50 (ER-α) [nM] | Number of Tumors Smaller at t = 27 days than at Start of study (t = 0 days) ([1]; 10 mpk oral dose each day) | Number of Tumors Smaller at t = 27 days than at Start of study (t = 0 days) ([1]; 30 mpk oral dose each day) | Number of Tumors Smaller at t = 27 days than at Start of study (t = 0 days) ([1]; 100 mpk oral dose each day)
1 | – | 14 | CC1=C(c2cccc(O)c2)C(c2ccc(OCCN3CC(C)C3)cc2)Oc2ccc(O)cc21 (racemic) [Example 4, 3-(3-Hydroxyphenyl)-4-methyl-2-(4-(2-(3-methylazetidin-1-yl)ethoxy)phenyl)-2H-chromen-6-ol] | 13 | – | – | – | –
2 | – | 8 | CC1=C(c2cccc(O)c2)C(c2ccc(OC[C@H](C)N3CC[C@@H](F)C3)cc2)Oc2ccc(O)cc21 (stereo partly drawn) [2-(4-((S)-2-((R)-3-fluoropyrrolidin-1-yl)propoxy)phenyl)-3-(3-hydroxyphenyl)-4-methyl-2H-chromen-6-ol] | 16 | – | – | – | –
3 | – | 33 | CC1=C(c2cccc(O)c2)C(c2ccc(OC[C@H](C)N3CCC3)cc2)Oc2ccc(O)cc21 (stereo partly drawn) [2-(4-((S)-2-(azetidin-1-yl)propoxy)phenyl)-3-(3-hydroxyphenyl)-4-methyl-2H-chromen-6-ol] | 30 | – | – | – | –

Further lines, the compound ahead of its results:

Row | SMILES | IC50 (MCF-7 cells) [nM] | ER-α In-Cell Western Assay (SP1): % ER-α remaining relative to Fulvestrant (ER-α) [%] | MCF7 Viability Assay: % Viability relative to Fulvestrant (MCF-7 cells) [%] | IC50 (ER-α) [nM] | Number of Tumors Smaller at t = 27 days than at Start of study (t = 0 days) ([1]; 10 mpk oral dose each day) | Number of Tumors Smaller at t = 27 days than at Start of study (t = 0 days) ([1]; 30 mpk oral dose each day) | Number of Tumors Smaller at t = 27 days than at Start of study (t = 0 days) ([1]; 100 mpk oral dose each day)
4 | CC1=C(c2cccc(O)c2)[C@@H](c2ccc(OCCN3CC(CF)C3)cc2)Oc2ccc(O)cc21 [Example 2, (R)-2-(4-(2-(3-(Fluoromethyl)azetidin-1-yl)ethoxy)phenyl)-3-(3-hydroxyphenyl)-4-methyl-2H-chromen-6-ol] | 4.3 | – | – | – | – | – | –
5 | CC1=C(c2cccc(O)c2)C(c2ccc(OCCN3CC(CF)C3)cc2)Oc2ccc(O)cc21 (racemic) [Example 1, (±)-2-(4-(2-(3-(Fluoromethyl)azetidin-1-yl)ethoxy)phenyl)-3-(3-hydroxyphenyl)-4-methyl-2H-chromen-6-ol] | 0.21 | – | – | – | – | – | –
6 | CC1=C(c2cccc(O)c2)C(c2ccc(OCCN3CCC3)cc2)Oc2ccc(O)cc21 (centres unmarked) [2-(4-(2-(azetidin-1-yl)ethoxy)phenyl)-3-(3-hydroxyphenyl)-4-methyl-2H-chromen-6-ol] | – | 24 | 25 | – | – | – | –
7 | CC1=C(c2cccc(O)c2)[C@H](c2ccc(OC[C@H](C)N3CC[C@@H](C)C3)cc2)Oc2ccc(O)cc21 [(S)-3-(3-Hydroxyphenyl)-4-methyl-2-(4-((S)-2-((R)-3-methylpyrrolidin-1-yl)propoxy)phenyl)-2H-chromen-6-ol] | 0.13 | – | 8 | 0.11 | 0/8 | 1/8 | 1/8
8 | CC1=C(c2cccc(O)c2)[C@H](c2ccc(OCCN3CC(CF)C3)cc2)Oc2ccc(O)cc21 [Example 3, (S)-2-(4-(2-(3-(fluoromethyl)azetidin-1-yl)ethoxy)phenyl)-3-(3-hydroxyphenyl)-4-methyl-2H-chromen-6-ol] | 0.07 | – | – | – | 0/5 | 2/8 | 5/8
